{"source": "patent US20140031275A1", "about": "“METHODS OF ERADICATING BACTERIAL CELL POPULATIONS” (priority 2011, published 2014)", "key": {"[1]": {"tested_on": "stationary state S. aureus SA113", "test": "Antibiotic action against stationary state S. aureus SA113 (MSSA), cfu counts", "format": "cell-based", "details": "for effect on stationary population of S. aureus cells: antibiotic alone, 5-day incubation, FIG. 1", "procedure": "FIG. 1 is a graph showing antibiotic action against stationary state S. aureus. SA113.\n(§1) Referring to FIG. 1, antibiotic action against stationary state S. aureus. SA113, an MSSA commonly used as a S. aureus model strain, was evaluated. S. aureus SA113 was grown in Mueller-Hinton broth for 24 hours. Antibiotics were added at day 0. Time-points were taken every 24 hours. 100 μl of culture was removed, centrifuged for one minute, and the cells were resuspended in PBS. Serial dilutions from neat to 10^−6 were spotted on MHA plates and incubated overnight at 37° C. The results shown in FIG. 1 are the averages of three independent experiments."}, "[2]": {"details": "from literature, healthy volunteers; cited from earlier work"}, "S. aureus": {"tested_on": "S. aureus", "test": "MIC against S. aureus", "format": "cell-based", "procedure": "as §1"}, "[3]": {"tested_on": "stationary MRSA 37 culture", "format": "cell-based, S. aureus", "procedure": "Black line represents the limit of detection\nThe ability of ADEP 10c to kill an S. aureus MRSA strain was also evaluated.\n(§2) Resistance to methicillin and oxacillin is the hallmark of MRSA."}, "MRSA strain": {"tested_on": "MRSA strain", "test": "Oxacillin MIC of MRSA strain", "format": "cell-based, S. aureus", "details": "Staphylococcus aureus", "description": "as §2"}, "stationary S. aureus": {"tested_on": "stationary S. aureus", "details": "high concentrations (24 μg/ml); sterilization not reported; cited from earlier work"}}, "data": [{"compound": "CC(=O)NC[C@H]1CN(c2ccc(N3CCOCC3)c(F)c2)C(=O)O1", "note": "[linezolid]", "values": [{"measurement": "effect on stationary population of S. aureus cells", "setting": "[1]", "value": "little effect"}, {"measurement": "clinically achievable concentrations", "setting": "[2]", "value": 14.5, "unit": "µg/mL"}]}, {"compound": "CO[C@H]1/C=C/O[C@@]2(C)Oc3c(C)c(O)c4c(O)c(c(/C=N/N5CCN(C)CC5)c(O)c4c3C2=O)NC(=O)/C(C)=C\\C=C\\[C@H](C)[C@H](O)[C@@H](C)[C@@H](O)[C@@H](C)[C@H](OC(C)=O)[C@@H]1C", "note": "[rifampicin]", "values": [{"measurement": "clinically achievable concentrations", "setting": "[2]", "value": 7.2, "unit": "µg/mL"}]}, {"compound": "L-proline, 3-fluoro-N-[(2E)-1-oxo-2-hepten-1-yl]-L-phenylalanyl-L-seryl-L-prolyl-(2S)-4-methyl-2-piperidinecarbonyl-L-alanyl-, (6→2)-lactone [ADEP 10c]", "values": [{"measurement": "MIC", "setting": "S. aureus; S. aureus", "value": 5, "unit": "µg/mL"}, {"measurement": "MIC", "setting": "S. aureus; tested with a variety of MSSA and MRSA isolates", "value": 5, "unit": "µg/mL"}, {"measurement": "cell numbers of the stationary population", "setting": "[1]", "value": "about 10^4 per ml"}, {"measurement": "killing of stationary cells, ADEP 10c compared with ADEP 4", "setting": "[1]", "value": "more efficacious at killing stationary cells"}]}, {"compound": "O=C(O)c1cn(C2CC2)c2cc(N3CCNCC3)c(F)cc2c1=O", "note": "[ciprofloxacin]", "values": [{"measurement": "effect on stationary population of S. aureus cells", "setting": "[1]", "value": "little effect"}]}, {"compound": "Cc1onc(-c2ccccc2)c1C(=O)N[C@@H]1C(=O)N2[C@@H]1SC(C)(C)[C@@H]2C(=O)O", "note": "[oxacillin]", "values": [{"measurement": "effect on stationary population of S. aureus cells", "setting": "[1]", "value": "little effect"}, {"measurement": "killing of clpP mutants of MRSA", "setting": "[3]", "value": "killed clpP mutants of MRSA"}, {"measurement": "killing of stationary MRSA cells", "setting": "[3]; oxacillin alone", "value": "no effect"}, {"measurement": "MIC", "setting": "MRSA strain", "value": "> 75", "unit": "µg/mL"}, {"measurement": "clinically achievable concentrations", "setting": "[2]", "value": 16, "unit": "µg/mL"}]}, {"compound": "CCCCCCCCCC(=O)N[C@@H](Cc1c[nH]c2ccccc12)C(=O)N[C@H](CC(N)=O)C(=O)N[C@@H](CC(=O)O)C(=O)N[C@@H]1C(=O)NCC(=O)N[C@@H](CCCN)C(=O)N[C@@H](CC(=O)O)C(=O)N[C@H](C)C(=O)N[C@@H](CC(=O)O)C(=O)NCC(=O)N[C@H](CO)C(=O)N[C@@H]([C@H](C)CC(=O)O)C(=O)N[C@@H](CC(=O)c2ccccc2N)C(=O)O[C@@H]1C", "note": "[Daptomycin]", "values": [{"measurement": "activity against stationary S. aureus", "setting": "stationary S. aureus", "value": "some activity"}]}]}
